Entries after “also recorded” stand apart in the source; their conditions may differ.
Columns and labels:
[1] = Plasma pharmacokinetics after intraperitoneal injection in mouse (UPLC-MS/MS); assay type: in vivo; conditions: for AUC(0-t) / half-life / Cmax: male, ICR; for AUC(0-t) / half-life: plasma; for AUC(0-t): 10 mg/kg, according to the above method, read-out: AUC(0-t); for AUC(0-t) / half-life / Pharmacokinetic properties compared with BAF: mouse; for AUC(0-t) / Pharmacokinetic properties compared with BAF: IP; for half-life / Cmax: IP 10 mg/kg; for Cmax: mouse plasma, prototype drug
Procedure: Positive control drug 4-butyl-α-agarofuran preparation (BAF) and Compound 2 preparation were administered intraperitoneally at a dose of 10 mg/kg/10 ml (calculated according to the crude drug), and a suspension was prepared by ultrasonic grinding with double distilled water. Male ICR mice, with a weight of 21-24 g, were purchased from SPF (Beijing) Biotechnology Co., Ltd.
12 mice were randomly divided into 4 groups, there were 3 parallel cross blood sampling points in each group (5 points in groups 1 and 3, and 6 points in groups 2 and 4), it was administered according to the weight, and blood was collected from the orbital venous plexus at 5 min, 10 min, […], 30 min, 1 h, 2 h, 4 h, 6 h, 8 h, 12 h, and 24 h after administration. The bloods at each time point were collected into Eppendorf (EP) tubes anticoagulated with heparin, and placed on ice and centrifuged at 8000 r/min×5 min, to separate plasma for later use.
20 μl of mouse blank plasma was taken, 55 μl of acetonitrile containing an internal standard solution (200 ng/mL, BAF crude drug and Compound 2 crude drug are mutual internal standards, namely BAF was used as the internal standard of Compound 2, and Compound 2 was used as the internal standard of BAF, similarly hereinafter) is added, 5 μl of a methanol working solution of the compound BAF or Compound 2 with different concentrations was respectively added and mixed uniformly, so that its final plasma concentrations were 0.2, 0.5, 2, 5, 10, 25, 50, 100, 200, 500, 750, and 1000 ng/ml respectively, centrifugation was conducted twice at a high speed of 13000 r/min×5 min, and 5 μl of a supernatant was taken for UPLC-MS/MS analysis.
10 μL of plasma was taken, 30 μL of acetonitrile containing internal standard solution (100 ng/mL) was added to precipitate proteins, after the material was centrifuged twice at a high speed of 13000 r/min×5 min, 5 μl of a supernatant was taken for UPLC-MS/MS analysis.
Chromatographic column: Symmetry C8 (2.1 mm×50 mm, 3.5 μm), column temperature: 25° C., mobile phase: acetonitrile (0.1% formic acid): water (0.1% formic acid)=70:30 gradient elution, flow rate: 0.2 mL/min, Parallel Reaction Monitoring (PRM) detection, BAF: m/z 263.2→245.2; and Compound 2: m/z 317.2→299.2.

male ICR mice = experiment: Elevated plus maze (EPM) test, intraperitoneal injection; assay type: in vivo, mouse; conditions: for Open-arm residence times and entries compared with BAF: Tables 3 and 4, statistical differences at a low dose; for Efficacy compared with BAF: at low doses; for Closed arm number of entries / Closed arm residence time / Open arm number of entries / Open arm residence time / Open arm/closed arm frequency ratio / Open arm/closed arm time ratio: mice, intraperitoneal, 5 min before entering the maze
Text: The active ingredient used in the following pharmacological experiment, the compound shown in Formula (I) of the present application, is the final product in Example 1 of the present application, namely (1R,6S,9R)6,10,10-trimethyl-2-(4,4,4-trifluorobutyl)-11-oxatricyclo [7.2.1.0^1,6]dodec-2-ene (hereinafter referred to as Compound 2). Compound 2 and an excipient PVP (povidone K30) were mixed in an ethanol solution in a mass ratio of 1:15, spin-dried, and prepared into a preparation form of Compound 2 (the following Compound 2 refers to the preparation form of Compound 2). The preparation form of which the active ingredient was 4-butyl-α-agarofuran (BAF for short) was used as a positive drug, a preparation method for this preparation was the same as that of the preparation of Compound 2, and the following BAF refers to this preparation of BAF. PVP was a blank control. In addition, the administration dose was calculated according to a crude drug.
This model is one of the most commonly used animal models in the research of antianxiety drugs. The elevated plus maze is composed of an open arm (30×5×0.5 cm) and an closed arm (30×8×15 cm) that are crossed in a positive cross shape, and the instrument is suspended 50 cm above the ground. Due to the narrowness, suspension, and brightness of the open arm, there may be internal “fear” or conflict in the open arm, and on the contrary, it more complies with the nature of rodents in the closed arm. 5 min after administration, a mouse is placed in the center of the maze, and its head faces to the open arm. Open-arm and closed-arm entries and residence times in both arms during the experimental period (usually 5 min) are recorded respectively. The percentages of the open arm entries and the open arm residence times respectively accounting for the total entries (sum of the open arm and closed arm entries) and the total time (sum of the open arm and closed arm residence times) are calculated, as an indicator for evaluating the anxiety. Generally speaking, a drug is considered to have antianxiety effects in the case that the open arm cumulative residence time is prolonged without reducing the open arm and closed arm entries.
The experiment used male Institute of Cancer Research (ICR) mice (purchased from Beijing Weitong Lihua Experimental Animal Technology Co., Ltd.), the weight was 18-20 g, the mice were randomly divided into 7 groups according to the weight, and there were 13 mice in each group. Grip adaptation training was conducted on the mice before the experiment. Before the experiment, the mice were fasted for 12 hours. It was administered by an intraperitoneal injection mode. 4-butyl-α-agarofuran (BAF for short) was used as a positive drug, and PVP was a blank control. The specific grouping and disposal modes are as follows:
During detection, after intraperitoneal injection of BAF/Compound 2, each mouse was immediately placed in an open animal box and allowed to move freely for 5 min, then the mouse was placed on a central platform of the elevated plus maze, its head faced to a fixed open arm. The detection was started, timed for 5 min, and recorded with a supermaze software by using a camera head. After all the experiments were completed, the residence times (s) of the mice in the open arm and the closed arm, the open arm and closed arm entries, and the time ratios and frequency ratios of the open arm and closed arm entries were recorded with the supermaze software. 1 was added to the number of entry arms with a latency of 0.

| AUC(0-t) [1] [ng·h/mL] | half-life [1] [min] | Cmax [1] [ng/mL] | Structure (SMILES) | Pharmacokinetic properties compared with BAF [1] | Open-arm residence times and entries compared with BAF (male ICR mice) | Efficacy compared with BAF (male ICR mice) | Closed arm number of entries (male ICR mice; 2.4 mg/kg) | Closed arm residence time (male ICR mice; 2.4 mg/kg) [s] | Open arm number of entries (male ICR mice; 2.4 mg/kg) | Open arm residence time (male ICR mice; 2.4 mg/kg) [s] | Open arm/closed arm frequency ratio (male ICR mice; 2.4 mg/kg) | Open arm/closed arm time ratio (male ICR mice; 2.4 mg/kg) | Closed arm number of entries (male ICR mice; 4.8 mg/kg) | Closed arm residence time (male ICR mice; 4.8 mg/kg) [s] | Open arm number of entries (male ICR mice; 4.8 mg/kg) | Open arm residence time (male ICR mice; 4.8 mg/kg) [s] | Open arm/closed arm frequency ratio (male ICR mice; 4.8 mg/kg) | Open arm/closed arm time ratio (male ICR mice; 4.8 mg/kg) | Closed arm number of entries (male ICR mice; 9.6 mg/kg) | Closed arm residence time (male ICR mice; 9.6 mg/kg) [s] | also measured |
| --- | --- | --- | --- | --- | --- | --- | --- | --- | --- | --- | --- | --- | --- | --- | --- | --- | --- | --- | --- | --- | --- |
| 142 | 83.4 | 342 | CC1(C)O[C@]23C[C@H]1CC[C@]2(C)CCC=C3CCCCC(F)(F)F [Compound 6, (1R,6S,9R)6,10,10-trimethyl-2-(5,5,5-trifluoropentyl)-11-oxatricyclo [7.2.1.0^1,6]dodec-2-ene] | superior to BAF; also recorded: better pharmacokinetic properties | prolonged | better efficacy | 11.00 ± 0.83 | 129.22 ± 9.33 | 9.11 ± 0.54 | 126.19 ± 8.01 | 0.86 ± 0.07 | 0.98 ± 0.15 | 10.00 ± 0.60 | 154.33 ± 7.85 | 8.88 ± 0.55 | 116.53 ± 6.42 | 0.90 ± 0.05 | 0.78 ± 0.07 | 8.56 ± 1.19 | 140.04 ± 15.48 | Open arm number of entries (male ICR mice; 9.6 mg/kg): 8.78 ± 1.53; Open arm residence time (male ICR mice; 9.6 mg/kg): 111.29 ± 11.05 s; Open arm/closed arm frequency ratio (male ICR mice; 9.6 mg/kg): 1.06 ± 0.13; Open arm/closed arm time ratio (male ICR mice; 9.6 mg/kg): 0.91 ± 0.17 |
| 148 | 84.6 | 350 | [2H]C1[C@H]2CC[C@]3(C)CC([2H])([2H])C=C(CCCC(F)(F)F)[C@@]13OC2(C)C (stereo partly drawn) [Compound 8, (1R,6R,9R)6,10,10-trimethyl-2-(4,4,4-trifluorobutyl)-4,4,10-trideuterium-11-oxatricyclo [7.2.1.0^1,6]dodec-2-ene] | superior to BAF; also recorded: better pharmacokinetic properties | prolonged | better efficacy | 10.86 ± 1.30 | 126.36 ± 11.90 | 9.43 ± 0.78 | 134.90 ± 9.73 | 0.93 ± 0.10 | 1.20 ± 0.26 | 10.00 ± 0.63 | 147.85 ± 10.01 | 9.10 ± 0.87 | 117.97 ± 8.25 | 0.93 ± 0.10 | 0.88 ± 0.14 | 10.00 ± 1.20 | 139.21 ± 14.30 | Open arm number of entries (male ICR mice; 9.6 mg/kg): 8.70 ± 0.94; Open arm residence time (male ICR mice; 9.6 mg/kg): 112.96 ± 9.69 s; Open arm/closed arm frequency ratio (male ICR mice; 9.6 mg/kg): 0.90 ± 0.07; Open arm/closed arm time ratio (male ICR mice; 9.6 mg/kg): 0.93 ± 0.16 |
